Test systems include OVCAR-8 ovarian; HS 578T breast; HCC-2998 colon; PC-3 prostate; UACC-257 melanoma; IGROV1 ovarian; SK-OV-3 ovarian; TK-10 renal; MALME-3M melanoma; NCI-H23 lung.
Test in all cases: NCI-60 cell line screen, 48 h

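All cell lines were grown in 96-well plates and treated with compound for 48 hours. GI50: concentration for 50% inhibition of growth. The concentration for full growth arrest is given as TGI.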

For `Cc1nc2ccccn2c1NC(=O)NNC(=S)Nc1ccc(F)cc1`, the GI50 with OVCAR-8 ovarian, in the test on HS 578T breast, with HCC-2998 colon, in the test with PC-3 prostate, with UACC-257 melanoma and in the test with IGROV1 ovarian was > 100 µM throughout. Moreover, the GI50 with SK-OV-3 ovarian and in the test on TK-10 renal was > 100 µM each time. In addition, the TGI in the test with OVCAR-8 ovarian, in the test with HS 578T breast, in the test on HCC-2998 colon, in the test on PC-3 prostate, with UACC-257 melanoma and in the test on IGROV1 ovarian was > 100 µM each time. The TGI in the test on SK-OV-3 ovarian and in the test on TK-10 renal was > 100 µM each time.
`O=C1C(=O)c2ccccc2C(O)=C1CCCc1ccc(C2CCCCC2)cc1`: the GI50 in the test on OVCAR-8 ovarian was 6.01 µM; with MALME-3M melanoma, 3.55 µM; in the test with HS 578T breast, 8.59 µM; in the test on HCC-2998 colon, 11.6 µM; with PC-3 prostate, 0.722 µM; with UACC-257 melanoma it was 6.5 µM. For the same compound, the GI50 with SK-OV-3 ovarian is 10.9 µM; in the test on TK-10 renal, 23.4 µM; with NCI-H23 lung it was 4.14 µM. The TGI is > 100 µM in the test on OVCAR-8 ovarian; 51 µM in the test with MALME-3M melanoma; 56.9 µM in the test with HS 578T breast; 61.4 µM in the test on HCC-2998 colon; 44.8 µM in the test on PC-3 prostate; > 100 µM in the test on UACC-257 melanoma. Further, the values for the TGI with SK-OV-3 ovarian, in the test on TK-10 renal and in the test with NCI-H23 lung were 59.7 µM, > 100 µM and 61.4 µM, respectively.
Turning to `NC(=O)c1cccc(OCC(O)CO)c1` (stereo unspecified), the TGI in the test on OVCAR-8 ovarian, in the test on HS 578T breast, with HCC-2998 colon, in the test on PC-3 prostate, in the test with UACC-257 melanoma and with IGROV1 ovarian was > 100 µM each time. Besides, the TGI in the test on SK-OV-3 ovarian, in the test on TK-10 renal and in the test with NCI-H23 lung was > 100 µM each time.
For the compound `CC(=O)NC(CSC1=C2NC(=O)\C=C/C=C/C=C\C(C)C(O)CC(=O)/C(C)=C\CC(O)/C=C/C(C)C(O)C(C)C=C(C)C(=O)c3c(O)c(C)cc(c3C1=O)C2=O)C(=O)O` (stereo unspecified), the TGI in the test with OVCAR-8 ovarian, with MALME-3M melanoma, in the test on HS 578T breast, in the test on PC-3 prostate, with UACC-257 melanoma and in the test on IGROV1 ovarian was > 100 µM throughout. Moreover, the TGI in the test on SK-OV-3 ovarian, in the test with TK-10 renal and in the test on NCI-H23 lung was > 100 µM each time.
Regarding `O=C(Nc1ccccc1-c1nn(CN2CCNCC2)c(=S)n(CN2CCNCC2)c1=O)C(F)(F)F`, the TGI in the test on OVCAR-8 ovarian turned out to be 53.5 µM; in the test with MALME-3M melanoma it was 32.9 µM; in the test with HCC-2998 colon it was 33.4 µM; in the test with UACC-257 melanoma, 31 µM; in the test on IGROV1 ovarian it was 46.5 µM; in the test with SK-OV-3 ovarian, 51.4 µM. For the same compound, the TGI with TK-10 renal worked out at 61.1 µM; in the test with NCI-H23 lung, 32.6 µM.
With `N/N=C(\c1nc2ccc(Cl)cc2[nH]c1=O)C(O)c1ccc(Cl)c(Cl)c1` (stereo unspecified), the TGI in the test on OVCAR-8 ovarian, with MALME-3M melanoma, in the test with HCC-2998 colon, in the test with UACC-257 melanoma, in the test on IGROV1 ovarian and in the test on SK-OV-3 ovarian was > 100 µM each time. Moreover, the TGI in the test with TK-10 renal and in the test on NCI-H23 lung was > 100 µM throughout.
Regarding `NCCNC(=O)c1cccc2cc3ccccc3nc12`, the TGI in the test on OVCAR-8 ovarian was > 22.2 µM; in the test with MALME-3M melanoma it was 3.29 µM; with HCC-2998 colon, 21.2 µM; in the test with UACC-257 melanoma, 8.81 µM; in the test with IGROV1 ovarian, > 28.6 µM; in the test on SK-OV-3 ovarian, > 39 µM. The values for the TGI in the test with TK-10 renal and in the test with NCI-H23 lung were 21.2 µM and 10.6 µM, respectively.
Turning to `COC(=O)[C@@H](C)[C@H]1CC[C@@](C)(CCC2=C(C)CC3C=C(C)CCC3C2(C)C)OO1` (stereo partly specified), the TGI in the test with OVCAR-8 ovarian is 4.09 µM; in the test on MALME-3M melanoma, 3.96 µM; with HCC-2998 colon it was 2.65 µM; with UACC-257 melanoma, 7.61 µM; in the test with IGROV1 ovarian it was 3.06 µM; with SK-OV-3 ovarian it was 3.87 µM. Moreover, the values for the TGI in the test with TK-10 renal and in the test on NCI-H23 lung were 3.31 µM and 3.49 µM, respectively.
As to `C1CN(P2(N3CC3)=NP(N3CC3)(N3CC3)=NP(N3CC3)(N3CC3)=N2)CCO1` (stereo unspecified), the TGI in the test on OVCAR-8 ovarian, with MALME-3M melanoma, with HCC-2998 colon, in the test with UACC-257 melanoma, in the test with IGROV1 ovarian and in the test on SK-OV-3 ovarian was > 100 µM in each case. Besides, the TGI with TK-10 renal and in the test on NCI-H23 lung was > 100 µM in each case.
As for `N#C/C(=N\Nc1ccccc1)C(=O)Nc1cc(-c2ccccc2)nn1-c1ccccc1`, the GI50 was 3.25 µM in the test with OVCAR-8 ovarian; 2.84 µM in the test with MALME-3M melanoma; 3.5 µM with HS 578T breast; 3.81 µM in the test on HCC-2998 colon; 2.13 µM in the test on PC-3 prostate; 2.47 µM in the test on UACC-257 melanoma. In addition, the GI50 is 4.49 µM in the test on IGROV1 ovarian, 4.27 µM with TK-10 renal and 2.73 µM in the test on NCI-H23 lung. For the same compound, the TGI in the test with OVCAR-8 ovarian was > 100 µM; in the test on MALME-3M melanoma, > 100 µM; with HS 578T breast, > 100 µM; in the test on HCC-2998 colon, > 100 µM; in the test on PC-3 prostate, 9.48 µM; with UACC-257 melanoma, 9.93 µM. Besides, the TGI in the test on IGROV1 ovarian was > 100 µM; with TK-10 renal it was > 100 µM; in the test with NCI-H23 lung, 60.5 µM.
Consider `OC12c3ccccc3C1CCCCCCCCCC21OCCO1` (stereo unspecified), for which the TGI in the test on OVCAR-8 ovarian, in the test with MALME-3M melanoma, with HCC-2998 colon, with UACC-257 melanoma, with IGROV1 ovarian and with SK-OV-3 ovarian was > 100 µM throughout. For the same compound, the TGI in the test on TK-10 renal and with NCI-H23 lung was > 100 µM in each case.
As for `CCCCCC[C@@H](C)NC(=O)c1ccc(Nc2nc3ccccc3c3occc23)cc1`, the GI50 in the test on OVCAR-8 ovarian is 3.08 µM; in the test with HS 578T breast, 3.79 µM; in the test on HCC-2998 colon it was 2.51 µM; in the test on PC-3 prostate it was 3.45 µM; in the test with UACC-257 melanoma it was 2.19 µM; in the test with IGROV1 ovarian, 1.61 µM. In addition, the GI50 is 4.25 µM with SK-OV-3 ovarian, 18.5 µM in the test with TK-10 renal and 2.06 µM with NCI-H23 lung. Besides, the TGI with OVCAR-8 ovarian was 16.5 µM; in the test on HS 578T breast it was > 100 µM; in the test on HCC-2998 colon it was 9.16 µM; in the test with PC-3 prostate, > 100 µM; in the test on UACC-257 melanoma, 5.66 µM; in the test with IGROV1 ovarian, 4.54 µM. The TGI is > 100 µM with SK-OV-3 ovarian, 70.2 µM in the test with TK-10 renal and 6.59 µM in the test with NCI-H23 lung.

Source of the values: PubChem BioAssay (NCI).
